TGI data for 7 molecules are collected here from PubChem BioAssay (NCI).

Among the test systems are 786-0 renal; A498 renal; ACHN renal; BT-549 breast; CAKI-1 renal; DU-145 prostate; HCT-15 colon; HOP-92 NSCLC; HS 578T breast; M14 melanoma; MDA-MB-435; NCI-H226 lung; NCI/ADR-RES ovarian; OVCAR-5 ovarian; PC-3 prostate; RXF 393 renal; SF-268 CNS; SNB-75 CNS; SR leukemia; TK-10 renal.
Common to all, as to test: inhibition of tumour cell growth, NCI panel, 48 h

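Compound exposure: 48 hours, 5 concentrations, 96-well plates. TGI: concentration producing complete growth inhibition.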

With `O=C(CCC(NC(=O)OCc1ccccc1)C(=O)OCc1ccccc1)Nc1ccc(OCc2ccccc2)cc1` (configuration not stated), the TGI in the assay on 786-0 renal was 17.4 µM; with A498 renal, more than 10 µM; in the assay with ACHN renal, more than 31.6 µM; with BT-549 breast, more than 10 µM; in the assay with CAKI-1 renal it was more than 31.6 µM; in the assay with DU-145 prostate it was more than 31.6 µM. The TGI with HCT-15 colon was 26.3 µM; with HOP-92 NSCLC it was more than 31.6 µM; with HS 578T breast, more than 31.6 µM; in the assay on M14 melanoma it was more than 100 µM; in the assay on MDA-MB-435, more than 31.6 µM; with NCI-H226 lung it was more than 31.6 µM. The TGI is more than 31.6 µM in the assay on NCI/ADR-RES ovarian; more than 100 µM in the assay on OVCAR-5 ovarian; 28.4 µM in the assay with PC-3 prostate; more than 31.6 µM in the assay with RXF 393 renal; more than 31.6 µM in the assay on SF-268 CNS; more than 31.6 µM in the assay on SNB-75 CNS. Besides, the TGI with SR leukemia and in the assay on TK-10 renal was more than 31.6 µM in each case.
On to `CCOC(=O)C1=[N+]([O-])OC2=C(O)CCCC21` (configuration not stated), for which the TGI in the assay with 786-0 renal, with A498 renal, in the assay with ACHN renal, in the assay on BT-549 breast, with CAKI-1 renal and in the assay with DU-145 prostate was more than 100 µM throughout. Moreover, the TGI in the assay with HCT-15 colon, with HOP-92 NSCLC, in the assay with HS 578T breast, with M14 melanoma, in the assay on MDA-MB-435 and in the assay on NCI-H226 lung was more than 100 µM throughout. The TGI in the assay with NCI/ADR-RES ovarian, in the assay with OVCAR-5 ovarian, in the assay on PC-3 prostate, in the assay with RXF 393 renal, in the assay on SF-268 CNS and in the assay with SNB-75 CNS was more than 100 µM in each case. The TGI with SR leukemia and with TK-10 renal was more than 100 µM in each case.
Regarding `NC(=O)N=C(N(Cc1ccccc1)Cc1ccccc1)N(Cc1ccccc1)Cc1ccccc1`, the TGI with 786-0 renal, in the assay on A498 renal, in the assay on ACHN renal, in the assay with BT-549 breast, in the assay on CAKI-1 renal and in the assay with DU-145 prostate was more than 100 µM each time. Also, the TGI in the assay with HCT-15 colon was more than 100 µM; in the assay on HOP-92 NSCLC, more than 64.8 µM; in the assay on HS 578T breast, more than 100 µM; in the assay with MDA-MB-435 it was more than 100 µM; with NCI-H226 lung it was more than 100 µM; with NCI/ADR-RES ovarian, more than 100 µM. Moreover, the TGI was more than 100 µM in the assay with OVCAR-5 ovarian; more than 100 µM in the assay with PC-3 prostate; more than 100 µM with RXF 393 renal; more than 100 µM with SF-268 CNS; 81.8 µM with SNB-75 CNS; more than 100 µM with SR leukemia. In the assay with TK-10 renal, this molecule came in with a TGI of more than 100 µM.
For the molecule `CCCC1(NC(=O)C(F)(F)F)CC(OC)OC2COC(c3ccccc3)OC21` (configuration not stated), the TGI in the assay with 786-0 renal, with A498 renal, in the assay with ACHN renal, in the assay with BT-549 breast, in the assay on CAKI-1 renal and in the assay on DU-145 prostate was more than 100 µM in each case. Moreover, the TGI in the assay on HCT-15 colon, with HOP-92 NSCLC, in the assay with HS 578T breast, in the assay with M14 melanoma, with MDA-MB-435 and with NCI-H226 lung was more than 100 µM in each case. The TGI in the assay with NCI/ADR-RES ovarian, in the assay with OVCAR-5 ovarian, with PC-3 prostate, in the assay with RXF 393 renal, with SF-268 CNS and with SNB-75 CNS was more than 100 µM in each case. The molecule also gave a TGI in the assay on SR leukemia of more than 100 µM.
For the molecule `O=[N+]([O-])c1ccc(-c2csc3nc(-c4ccccc4)nn23)cc1`, the TGI with 786-0 renal, in the assay with A498 renal, with ACHN renal, with BT-549 breast, in the assay with CAKI-1 renal and in the assay on DU-145 prostate was more than 100 µM each time. Further, the TGI in the assay with HCT-15 colon, in the assay with HOP-92 NSCLC, in the assay with HS 578T breast, in the assay with M14 melanoma, with MDA-MB-435 and in the assay on NCI-H226 lung was more than 100 µM in each case. The TGI in the assay on NCI/ADR-RES ovarian, in the assay on OVCAR-5 ovarian, in the assay with PC-3 prostate, in the assay with RXF 393 renal, in the assay with SF-268 CNS and in the assay on SNB-75 CNS was more than 100 µM each time. The TGI with SR leukemia and in the assay with TK-10 renal was more than 100 µM throughout.
As to `O=C(/C=C/c1csc(-c2ccccc2)n1)NCc1ccc(C(=O)NCCc2ccccc2)cc1`, the TGI in the assay with 786-0 renal was 32.7 µM; with A498 renal, 64.8 µM; with ACHN renal, more than 100 µM; in the assay on BT-549 breast it was more than 100 µM; in the assay with CAKI-1 renal, 50.3 µM; in the assay on DU-145 prostate it was more than 100 µM. For the same molecule, the TGI in the assay with HCT-15 colon is more than 100 µM; in the assay on HOP-92 NSCLC, 36.8 µM; with HS 578T breast it was more than 100 µM; with M14 melanoma, more than 100 µM; with MDA-MB-435, more than 100 µM; in the assay with NCI-H226 lung it was 90.2 µM. The TGI was more than 100 µM in the assay with NCI/ADR-RES ovarian; more than 100 µM in the assay on OVCAR-5 ovarian; more than 100 µM in the assay with PC-3 prostate; 23.4 µM with RXF 393 renal; more than 100 µM with SF-268 CNS; 8.31 µM with SNB-75 CNS. In addition, the TGI was more than 100 µM in the assay with SR leukemia and 38.2 µM with TK-10 renal.
As to `CCC1NC(=O)C1NC(=O)OC` (configuration not stated), the TGI in the assay with 786-0 renal, with A498 renal, with ACHN renal, with BT-549 breast, in the assay with CAKI-1 renal and in the assay with DU-145 prostate was more than 100 µM in each case. For the same molecule, the TGI with HCT-15 colon, in the assay with HOP-92 NSCLC, in the assay with HS 578T breast, in the assay on M14 melanoma, in the assay on MDA-MB-435 and with NCI-H226 lung was more than 100 µM throughout. The TGI with NCI/ADR-RES ovarian, in the assay with OVCAR-5 ovarian, in the assay with PC-3 prostate, with RXF 393 renal, in the assay on SNB-75 CNS and with SR leukemia was more than 100 µM each time. Moreover, the TGI with TK-10 renal is more than 100 µM.
